These results are taken from patent publication US7435744B2, “Piperidine derivatives as NMDA receptor antagonists” (Gedeon Richter Vegyeszeti Gyar RT, priority 2001, dated 2008).

pIC50: −log10 of the molar value. Like-named read-outs stand apart in the source and are kept apart here.

Assay [1] addresses T1, NMDA receptors (NR2B subunit containing) (Rattus norvegicus, UniProt P35439+Q00960).
T1 construct: endogenous in cells; host or cells: primary neocortical neurons from 17 day old Charles River rat embryos, 4-7 days in vitro
Description: Functional NMDA antagonist potency: intracellular calcium measurement in primary cultures of rat cortical neurons (fluorimeter plate reader). Format: cell-based. An excerpt:
Assessing the Functional NMDA Antagonist Potency of Compounds in Primary Cultures of Rat Cortical Neurons Based on Measuring the Intracellular Calcium Concentration Using a Fluorimeter Plate Reader
It is known that during postnatal development the subunit composition of neuronal NMDA receptors is changing. […] According to data in the literature and to our own immunocytochemical examinations neuronal cells cultured for 4-7 days in vitro predominantly express the NR2B subunit, together with NR1 subunit. Therefore, functional test of NMDA antagonism in these cells reflects mainly an action on NR2B subunit containing receptors. Since NMDA receptors are known to be permeable to calcium ions upon excitation, the extent of NMDA receptor activation, and its inhibition by functional antagonists can be characterised by measuring the rise in the intracellular calcium concentration following agonist (NMDA) application onto the cells. Since there is very high sequence homology between rat and human NMDA receptors (99, 95, 97% for NR1, NR2A, and NR2B subunits, respectively), it is believed that there is little, if any, difference in their pharmacological sensitivity.
In: Protocols for Neural Cell Culture, eds: Fedoroff, S.; Richardson A., The Humana Press Inc., 13-38.] After isolation, the cells are plated onto standard 96-well microplates and the cultures are maintained in an atmosphere of 95% air-5% CO2 at 37° C. until testing.
The cultures are used for the intracellular calcium measurements after 4-7 days in vitro. […] Loading is stopped by washing twice with the solution used also during the measurement (140 mM NaCl, 5 mM KCl, 2 mM CaCl2, 5 mM HEPES [4-(2-hydroxyethyl)-1-piperazineethane-sulfonic acid], 5 mM HEPES-Na, 20 mM glucose, 10 μM glycine, pH=7.4). Then the test compound dissolved in the above solution (90 μl/well) is added. Intracellular calcium measurements are carried out with a plate reader fluorimeter. A rise is induced by application of 40 μM NMDA in Fluo-4-fluorescence that reflects the intracellular calcium concentration. Inhibitory potency of the test compound is assessed by measuring the reduction in the calcium elevation in the presence of different concentrations of the compound. After the measurement, a standard calibration procedure [Meth. Cell.
Inhibitory potency of a compound at a single concentration point is expressed as percent inhibition of the control NMDA response. Sigmoidal concentration-inhibition curves are fitted over the data and IC50 values are defined as the concentration that produces half of the maximal inhibition that could be achieved with the compound. Mean IC50 values are derived from at least three independent experiments.
(§1) wherein for NMDA IC50—IC50 is determined by the intracellular Ca^2+-concentartion assay on cortical neurons; and for Ro-binding IC50—IC50 is determined by the [^3H]-Ro 25,6981 binding assay on rat cerebral membranes.
Background: A change in cytosolic calcium serves as a functional read-out for many receptors and channels.

In assay [2] the target is T2, NR2B subunit (Rattus norvegicus, UniProt P35439+Q00960).
T2 construct: from tissue; host or cells: forebrain membranes of male Wistar rats
T2 sequence (Q00960 27-1482, other chains not shown): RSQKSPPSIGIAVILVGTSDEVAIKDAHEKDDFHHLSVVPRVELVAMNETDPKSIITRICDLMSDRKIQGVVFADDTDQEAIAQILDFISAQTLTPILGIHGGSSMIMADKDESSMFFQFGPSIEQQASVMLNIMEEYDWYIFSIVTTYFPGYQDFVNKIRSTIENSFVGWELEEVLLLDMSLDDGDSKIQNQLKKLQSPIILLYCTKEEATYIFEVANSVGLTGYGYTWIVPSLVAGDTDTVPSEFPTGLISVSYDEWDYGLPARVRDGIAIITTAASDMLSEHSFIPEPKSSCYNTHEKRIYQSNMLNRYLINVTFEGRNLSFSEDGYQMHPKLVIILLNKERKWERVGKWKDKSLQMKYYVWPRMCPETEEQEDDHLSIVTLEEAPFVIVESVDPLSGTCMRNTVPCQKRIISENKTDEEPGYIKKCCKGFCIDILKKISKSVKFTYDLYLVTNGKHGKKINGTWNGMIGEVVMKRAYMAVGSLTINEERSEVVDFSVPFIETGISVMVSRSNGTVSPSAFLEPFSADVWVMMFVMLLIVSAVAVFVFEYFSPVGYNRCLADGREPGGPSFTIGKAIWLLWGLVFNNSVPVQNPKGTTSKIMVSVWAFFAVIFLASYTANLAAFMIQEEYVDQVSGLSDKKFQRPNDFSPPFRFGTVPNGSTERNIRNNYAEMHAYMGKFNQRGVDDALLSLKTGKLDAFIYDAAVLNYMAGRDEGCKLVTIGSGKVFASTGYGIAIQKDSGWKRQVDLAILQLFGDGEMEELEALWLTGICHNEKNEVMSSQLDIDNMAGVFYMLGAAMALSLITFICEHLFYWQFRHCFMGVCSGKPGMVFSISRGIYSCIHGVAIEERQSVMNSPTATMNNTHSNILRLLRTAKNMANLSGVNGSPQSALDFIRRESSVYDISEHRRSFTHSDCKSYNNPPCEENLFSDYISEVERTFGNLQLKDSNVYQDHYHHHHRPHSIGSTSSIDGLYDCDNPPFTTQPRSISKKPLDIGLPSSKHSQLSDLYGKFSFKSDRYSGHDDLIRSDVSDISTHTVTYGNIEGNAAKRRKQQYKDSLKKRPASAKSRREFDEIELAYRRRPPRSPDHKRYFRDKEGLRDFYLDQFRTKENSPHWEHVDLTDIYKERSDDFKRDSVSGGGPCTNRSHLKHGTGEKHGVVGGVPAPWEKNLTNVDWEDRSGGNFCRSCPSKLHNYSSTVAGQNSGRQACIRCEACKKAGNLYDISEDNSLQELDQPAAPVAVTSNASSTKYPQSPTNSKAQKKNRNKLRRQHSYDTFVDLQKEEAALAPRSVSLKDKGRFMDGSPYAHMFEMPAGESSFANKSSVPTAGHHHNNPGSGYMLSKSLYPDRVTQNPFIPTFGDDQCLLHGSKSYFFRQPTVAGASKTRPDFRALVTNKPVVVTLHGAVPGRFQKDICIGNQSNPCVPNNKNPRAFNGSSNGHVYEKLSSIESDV
Description: [3H]-Ro 25,6981 binding assay on rat cerebral membranes. Here is the method: Determining Binding of Compounds to NR2B Subunit by [^3H]-Ro 25,6981 Binding Assay
Briefly, membranes are isolated from the forebrain of male Wistar rats. They are incubated in the presence and absence of test compound for 2 hours at room temperature. […] The applied radioligand (^3H-Ro-25,6981) concentration is 4 nM.
as §1

Assay [3] concerns NMRI mice. Description: Mouse formalin test (second phase) for in vivo efficacy. Conditions: p.o. 15 min before formalin, licking time 20 to 25 min after formalin, >20 = inhibition less than 50% at 20 mg/kg p.o.; for ED50: po. Here is the method:
Mouse Formalin Test for Measurement of In Vivo Efficacy
Injection of diluted formalin into the hind paw of rats or mouse is known to elicit a biphasic pain related behaviour measured as time spent by licking/biting of the injured paw. The second phase is generally defined as pain related events detected in the 15-60 min. time interval after formalin injection. It is known that NMDA receptors are involved in the second phase of response to formalin injection and this behavioural response is sensitive to blockade of NMDA receptors [Dickenson, A. and Besson J.-M. (Eds.): Chapter 1, pp. 6-7: Animal models of Analgesia; and Chapter 8, pp. 180-183: Mechanism of Central Hypersensitivity: Excitatory Amino Acid Mechanisms and Their Control—In Pharmacology of Pain. Springer-Verlag (Berlin) 1997.] Therefore, we performed the second phase of formalin test to characterise the efficacy of compounds in vivo. Inhibition of the second phase of response is considered to indicate an analgesic effect against chemically-induced persistent pain [Hunskaar, S., et al.: Formalin Test in Mice, a Useful Technique for Evaluating Mild Analgesics, Journal of Neuroscience Methods, 14 (1985) 69-76.] Male albino Charles River NMRI mice (20-25 g) were used. Prior to the experiment any solid food was withdrawn for 16 hours but the animals had free access to 20% glucose solution. The animals were allowed a 1 hour acclimatisation period spent in a glass cylinder (cc. 15 cm in diameter), then moved to an identical cylinder with a mirror placed behind to facilitate observation. The test substances were suspended in 5% tween-80 (10 ml per kg body weight). and administered orally by gavage 15 min before the formalin injection (20 μl of 1% formalin in 0.9% saline injected subcutaneously into the dorsal surface of the right hindpaw). The time spent by licking and biting of the injected paw was measured from 20 to 25 min. after the formalin injection.

Where [4] appears, read: rat cortical neurons 4-7 days in vitro, 40 μM NMDA, Fluo-4 intracellular Ca2+, read-out: NMDA IC50.
[5] abbreviates: rat forebrain membranes, 4 nM [3H]-Ro 25,6981, 2 hours at room temperature, read-out: Ro-binding IC50.

T1 sequence (Q00960 27-1482, other chains not shown): as above

Broadly, the pIC50 is the IC50 on a negative log10 scale, so that one unit is a factor of ten. One may read the ED50 as the dose that gives a 50% effect, or the effect in half of the subjects. Low readings indicate an effect at a small dose, high ones a need for a large dose. Take `O=c1[nH]c2ccc([S+]([O-])CCN3CCC(Cc4ccc(F)cc4)CC3)cc2o1` (centres unmarked) [CI-1041, 6-{2-[4-(4-fluoro-benzyl)-piperidin-1-yl]-ethanesulfinyl}-3H-benzooxazol-2-one, reference compound]: the values for the negative logarithm of the IC50 (pIC50) in assay [1] and in assay [2] were 8.18 and 8.40, respectively. Moreover, the ED50 in assay [3] came to 5.3 mg/kg.

With `C[C@@H]([C@@H](O)c1ccc(O)cc1)N1CCC(O)(c2ccccc2)CC1` [CP 101,606, (1S,2S)-1-(4-hydroxyphenyl)-2-(4-hydroxy-4-phenylpiperidine-1-yl)-1-propanol, reference compound], in assay [3], the ED50 was over 20 mg/kg.

`Cc1ccc(CC2(O)CCN(CCOc3ccc(O)cc3)CC2)cc1` [Co-101244, 1-[2-(4-hydroxyphenoxy)ethyl]-4-hydroxy-4-(4-methylbenzyl)piperidine, reference compound]: the pIC50 was 7.64 in assay [1] (setting [4]) and 8.48 in assay [2] (setting [5]). Also, the ED50 in assay [3] was over 20 mg/kg.

For the molecule `Oc1ccc(OCCN2CCC(Cc3ccc(F)cc3)CC2)cc1` [Co-111103, 1-[2-(4-hydroxyphenoxy)ethyl]-4-(4-fluorobenzyl)piperidine, reference compound], the pIC50 in assay [2] (setting [5]) is 8.08. This molecule also had an ED50 in assay [3] of over 20 mg/kg.

For `O=C(CCN1CCC(Cc2ccc(F)cc2)CC1)c1ccc2[nH]c(=O)oc2c1` [EMD 95885, reference compound], the negative logarithm of the IC50 (pIC50) in assay [1] (setting [4]) is 7.46; in assay [2] (setting [5]), 8.14. For the same molecule, in assay [3], the “ED50 (mg/kg p.o.)” value is on record as 5.9 mg/kg.

In assay [3], `O=C1Cc2cc(NC(=O)C(=O)N3CCC(Cc4ccc(F)cc4)CC3)ccc2N1` [Example 1, 2-[4-(4-Fluoro-benzyl)-piperidin-1-yl]-2-oxo-N-(2-oxo-2,3-dihydro-1H-indol-5-yl)-acetamide] showed a 50% effective dose (ED50) of 0.46 mg/kg.

Take `O=C(Nc1ccc2[nH]c(=O)[nH]c2c1)C(=O)N1CCC(Cc2ccc(F)cc2)CC1` [Example 2, 2-[4-(4-Fluoro-benzyl)-piperidin-1-yl]-2-oxo-N-(2-oxo-2,3-dihydro-1H-benzimidazol-5-yl)-acetamide]: the pIC50 in assay [1] (setting [4]) was 9.15; in assay [2] (setting [5]) it was 8.33.

`O=C(Nc1ccc2oc(=O)[nH]c2c1)C(=O)N1CCC(Cc2ccc(F)cc2)CC1` [Example 4, 2-[4-(4-Fluoro-benzyl)-piperidin-1-yl]-2-oxo-N-(2-oxo-2,3-dihydro-benzoxazol-5-yl)-acetamide]: the pIC50 in assay [1] (setting [4]) is 5.33; in assay [2] (setting [5]), under 4.52.

Consider `O=C(Nc1ccc2[nH]c(=O)[nH]c2c1)C(=O)N1CCC(Cc2ccccc2)CC1` [Example 7, 2-(4-Benzyl-piperidin-1-yl)-2-oxo-N-(2-oxo-2,3-dihydro-1H-benzimidazol-5-yl)-acetamide], for which the negative logarithm of the IC50 (pIC50) in assay [1] (setting [4]) is 8.85; in assay [2] (setting [5]), 8.36.

As for `O=C(Nc1ccc2[nH]c(=O)oc2c1)C(=O)N1CCC(Cc2ccccc2)CC1` [Example 8, 2-(4-Benzyl-piperidin-1-yl)-2-oxo-N-(2-oxo-2,3-dihydro-benzoxazol-6-yl)-acetamide], the pIC50 in assay [1] (setting [4]) is 8.62; in assay [2] (setting [5]), 8.26.

As to `CS(=O)(=O)Nc1cccc(NC(=O)C(=O)N2CCC(Cc3ccccc3)CC2)c1` [Example 12, 2-(4-Benzyl-piperidin-1-yl)-N-(3-methanesulfonylamino-phenyl)-2-oxo-acetamide], the pIC50 in assay [1] (setting [4]) was 6.00; in assay [2] (setting [5]), 6.21.

With `O=C1COc2cc(NC(=O)C(=O)N3CCC(Cc4ccccc4)CC3)ccc2N1` [Example 24, 2-(4-Benzyl-piperidin-1-yl)-2-oxo-N-(3-oxo-3,4-dihydro-2H-benzo [1,4]oxazin-7-yl)-acetamide], the pIC50 is 6.95 in assay [1] (setting [4]) and 6.67 in assay [2] (setting [5]).

In assay [3], `O=C(Nc1ccc2[nH]c(=O)oc2c1)C(=O)N1CCC(Oc2ccc(Cl)cc2)CC1` [Example 31, 2-[4-(4-Chloro-phenoxy)-piperidin-1-yl]-2-oxo-N-(2-oxo-2,3-dihydro-benzoxazol-6-yl)-acetamide] came in with a 50% effective dose (ED50) of 4.4 mg/kg.

With `Cc1ccc(CC2CCN(C(=O)C(=O)Nc3ccc4c(c3)CC(=O)N4)CC2)cc1` [Example 101, 2-[4-[4-Methyl-benzyl)-piperidin-1-yl]-2-oxo-N-(2-oxo-2,3-dihydro-1H-indol-5-yl)-acetamide], the ED50 in assay [3] amounted to 0.48 mg/kg.

`O=C(CN1CCC(Cc2ccccc2)CC1)Nc1ccc2c(c1)CC(=O)N2` [Example 143, 2-(4-Benzyl-piperidin-1-yl)-N-(2-oxo-2,3-dihydro-1H-indol-5-yl)-acetamide]: the negative-log IC50 (pIC50) in assay [1] (setting [4]) is 6.79; in assay [2] (setting [5]), 7.54.

For the molecule `O=C(CN1CCC(Cc2ccccc2)CC1)Nc1ccc2[nH]c(=O)oc2c1` [Example 146, 2-(4-Benzyl-piperidin-1-yl)-N-(2-oxo-2,3-dihydro-benzoxazol-6-yl)-acetamide], the negative logarithm of the IC50 (pIC50) in assay [1] (setting [4]) was 8.22; in assay [2] (setting [5]) it was 8.77.

As to `O=C(CN1CCC(Cc2ccccc2)CC1)Nc1ccc2[nH]ncc2c1` [Example 147, 2-(4-Benzyl-piperidin-1-yl)-N-(1H-indazol-5-yl)-acetamide], the negative-log IC50 (pIC50) is 5.88 in assay [1] (setting [4]) and 6.92 in assay [2] (setting [5]).

Molecule `CC(C(=O)Nc1ccc2[nH]c(=O)oc2c1)N1CCC(Cc2ccccc2)CC1` (centres unmarked) [Example 161, 2-(4-Benzyl-piperidin-1-yl)-N-(2-oxo-2,3-dihydro-1H-benzoxazol-6-yl)-propionamide] yielded a 50% effective dose (ED50) in assay [3] of 2.4 mg/kg.

`O=C(CN1CCC(Cc2ccccc2)CC1)Nc1ccc(O)cc1` [Example 192, 2-(4-Benzyl-piperidin-1-yl)-N-(4-hydroxy-phenyl)-acetamide] yielded an ED50 in assay [3] of 17 mg/kg.

As to `O=C(CNc1ccc2[nH]c(=O)[nH]c2c1)N1CCC(Cc2ccc(F)cc2)CC1` [Example 197, 5-{2-[4-(4-Fluoro-benzyl)-piperidin-1-yl]-2-oxo-ethylamino}-1,3-dihydro-benzoimidazol-2-one], the pIC50 in assay [1] (setting [4]) was 7.32; in assay [2] (setting [5]), 7.04.

Consider `O=C(CNc1ccc2[nH]ncc2c1)N1CCC(Cc2ccc(F)cc2)CC1` [Example 199, 1-[4-(4-Fluoro-benzyl)-piperidin-1-yl]-2-(1H-indazol-5-yl-amino)-ethanone], for which the pIC50 was 6.27 in assay [1] (setting [4]) and 6.01 in assay [2] (setting [5]).

For the molecule `C[C@@H](CN1CCC(Cc2ccccc2)CC1)[C@@H](O)c1ccc(O)cc1` [Ro 25.6981, R—(R*,S*)-1-(4-hydroxyphenyl)-2-methyl-3-[4-(phenylmethyl)piperidin-1-yl]-1-propanol, reference compound], the negative-log IC50 (pIC50) in assay [2] was 8.23. The same molecule yielded a 50% effective dose (ED50) in assay [3] of over 20 mg/kg.
